Experimental data: publication PMC7822874, “Chemoprotective antimalarials identified through quantitative high-throughput screening of Plasmodium blood and liver stage parasites” (Scientific Reports, 2021)

Tested on: Plasmodium falciparum Dd2 asexual blood stage parasites
Assay: microbe, parasite or virus in culture
Parameters: species or system Plasmodium falciparum Dd2 in human erythrocytes; single determination (one 11-point concentration-response curve)
Settings: Plasmodium falciparum, DD2, Erythrocyte, 72 h; read-out: AC50

| Compound | AC50 |
| --- | --- |
| Oc1ccc(Br)cc1CN1CCN(c2ccccc2)CC1 [MLS000106609-01] | 2.11 µM |
| CCC(=O)C1=C(c2ccc(OC)c(OC)c2)N(C(=O)CC)n2c(CC)nnc2S1 [NCGC00137256-01] | 4.73 µM |
| Cc1c(CN2CCN(CC(C)(C)C)C(CCO)C2)[nH]c2ccccc12 (centres unmarked) [MLS001000590-01] | 9.44 µM |
| CC1Cn2c(nnc2-c2cc3ccccc3cc2O)S1 (centres unmarked) [MLS000066435-01] | 4.73 µM |
| O=C1CC2(CCN(CC3CCCCC3)CC2)Oc2cc(Cl)ccc21 [NCGC00476867-01] | 1.5 µM |
| CCn1c(SCc2ccc(C#N)cc2)nnc1-c1ccc(S(=O)(=O)N2CCCCC2)cc1 [MLS000032588-01] | 6.68 µM |
| COC[C@H]1CCCN1[C@@H]1[C@H](O)[C@H](CO)O[C@@H]1CN(Cc1cccc(Cl)c1)Cc1cccc(Cl)c1 [NCGC00391669-01] | 10.6 µM |
| Cc1nn(CCC(=O)N[C@H]2CC[C@H]2NC2CCCCC2)c(C)c1C [NCGC00442733-01] | 6.68 µM |
| Cc1cc(Nc2cccc(Cl)c2)nc(NCc2ccccc2)n1 [MLS000591844-01] | 8.41 µM |
| Cc1ccccc1N(C(=O)c1snc(C(N)=O)c1N)C(C(=O)NCC1CCCO1)c1ccc(N(C)C)cc1 (centres unmarked) [MLS001218424-01] | 7.5 µM |
| C#C[C@H]1C[N@@]2CC[C@H]1C[C@@H]2CNCc1ccc(F)c(F)c1 [NCGC00399053-01] | 13.7 µM |
| COC(=O)C1=C(C)N(c2ccc(OC)cc2)C(C)=C(C(=O)OC)C1c1ccccc1 [MLS000780021-01] | 9.44 µM |
| CCn1ccc2ccc(CN3CCCC(O)(CN4CCCC4)C3)cc21 (centres unmarked) [NCGC00441341-01] | 7.5 µM |
| CCc1cccc2c(C(CC(=O)N3CCC(C)CC3)c3cccc(C)c3)c[nH]c12 (centres unmarked) [NCGC00473418-01] | 4.73 µM |
| Cc1oc2ccc(O)c(CN3CCCC(C)C3)c2c1C(=O)Nc1ccccc1 (centres unmarked) [NCGC00115528-01] | 2.11 µM |
| COc1ccc2cc1Nc1ccc(cc1)C[C@H](NC(=O)c1cccnc1)C(=O)N(C)[C@@H](C(=O)NCCOc1ccccc1)C2 [NCGC00410281-01] | 4.22 µM |
| O=C(Nc1cnc2ccccc2c1)c1cccc(-n2cnnn2)c1 [MLS000032104-01] | 2.66 µM |
| Cc1ccc(N(Cc2cccs2)C(=O)C(C)Oc2ccc(Cl)c(C)c2)cc1 (centres unmarked) [NCGC00119071-01] | 7.5 µM |
| COC1C(=O)N(c2cccc(F)c2)C12CCNCC2 (centres unmarked) [NCGC00463379-01] | 10.6 µM |
| Cc1ccc2c(C)c(C(=O)N3CCCC3c3nc(C(C)C)no3)oc2c1C (centres unmarked) [NCGC00435047-01] | 6.68 µM |
| CC(C)CNC(=O)c1nc(-c2ccc(Cl)cc2)c2cnccn12 [NCGC00476461-01] | 8.63 µM |
| CCOc1ccc(CCNC(=O)c2ccc3c(c2)N(Cc2ccccc2F)C(=O)c2ccccc2[S+]3[O-])cc1OCC (centres unmarked) [NCGC00109590-01] | 10.6 µM |
| CSc1nnc(-c2cc3ccccc3cc2O)n1C [MLS000035069-01] | 7.5 µM |
| CCC(=O)C1=C(c2ccccc2)N(C(=O)CC)n2c(nnc2-c2ccccc2)S1 [NCGC00137198-01] | 5.96 µM |
| Cc1cccc(OCC(=O)NCC2(N3CCN(C)CC3)CCCCC2)c1C [NCGC00118605-01] | 6.68 µM |
| CCN(CC)CCNC(=O)C12CCCC=C1N(Cc1ccccc1)C(=O)CC2 (centres unmarked) [NCGC00472142-01] | 8.41 µM |
| CCC(C)(C)n1nnnc1C(c1ccccc1OC)N1CCN(C(=O)c2ccco2)CC1 (centres unmarked) [MLS001221981-01] | 15 µM |

| Compound | AC50 |
| --- | --- |
| Cc1ccccc1OCCSc1nc2ccc(NC(=O)c3ccccc3)cc2s1 [NCGC00118500-01] | 15 µM |
| O=C(NCCCN1CCc2ccccc2C1)C1Cn2cccc2C(=O)N1Cc1ccccc1 (centres unmarked) [NCGC00456658-01] | 9.44 µM |
| COc1ccc(OCC(=O)NCC2(N3CCN(C)CC3)CCCCC2)cc1 [NCGC00118575-01] | 1.88 µM |
| COc1ccc2cc1Nc1ccc(cc1)C[C@H](NCc1cccc(C(=O)O)c1)C(=O)N(C)[C@H](C(=O)Nc1ccccc1OCc1ccccc1)C2 [NCGC00410264-01] | 4.73 µM |
| COc1ccc(-c2cc(-c3ccc(N4CCOCC4)nc3)cn3cncc23)cc1 [NCGC00412184-01] | 7.69 µM |
| O=C(NC(S)=Nc1ccc(NC(=O)c2cccs2)cc1)c1ccco1 [MLS000567605-01] | 9.44 µM |
| CCCC(O)(c1ccc(Cl)cc1)C(CN1CCOCC1)c1ccc(Cl)cc1 (centres unmarked) [MLS001200366-01] | 4.73 µM |
| CCN(C(=O)CSc1nc(-c2ccc(C(C)C)cc2)no1)c1cccc(C)c1 [NCGC00127902-01] | 1.06 µM |
| COc1ccc2cc1Nc1ccc(cc1)C[C@H](NC(=O)c1ccc(Oc3ccccc3)cc1)C(=O)N(C)[C@@H](C(=O)Nc1ccccc1)C2 [NCGC00410310-01] | 2.11 µM |
| COc1cc2nc(NCCC(C)C)n3nc(-c4ccccc4)nc3c2cc1OC [NCGC00112851-01] | 0.422 µM |
| c1ccc(Cn2c(Sc3nnnn3-c3ccccc3)nnc2-c2ccccc2)cc1 [MLS000052243-01] | 7.5 µM |
| COC(=O)C1=C(c2ccc(-c3ccccc3)c(F)c2)C[C@@H]2CC[C@H]1N2C(=O)NCc1cccc2ccccc12 [MLS002302696-01] | 10.6 µM |
| COCC1CN(C)CC12CCN([S+](=O)([O-])c1ccc(F)c(Cl)c1)CC2 (centres unmarked) [NCGC00461939-01] | 13.3 µM |
| Cc1ccc(CN2CCc3oc(C)c(C(=O)NCCN4CCCCC4)c3C2)cc1 [NCGC00471970-01] | 10.6 µM |
| O=C(c1ccc2c(c1)OCO2)N1CCC2(CC1)COc1ccccc1CN2 [NCGC00477555-01] | 5.31 µM |
| COc1ccc(CNC[C@H]2O[C@H](Cc3cc(-c4ccc(OC)cc4)on3)CC[C@@H]2O)cc1 [NCGC00401026-01] | 10.6 µM |
| COc1cc(O)c(C(CCN2CCCC(C)C2)c2ccc3c(c2)OCO3)c(OC)c1 (centres unmarked) [MLS000879506-01] | 0.531 µM |
| CC(=O)c1c(S)nc(-c2ccccc2)nc1N1CCN(C)CC1 [MLS000519428-01] | 5.96 µM |
| Cc1ccc(C2=CC(c3ccc(Cl)cc3)n3nc(-c4ccc(C)cc4)nc3N2)cc1 (centres unmarked) [NCGC00105128-01] | 1.68 µM |
| COCCN(CCOC)c1nc(N)c2c(N)nc3c(c2c1C#N)CC(=O)N3Cc1ccc(Cl)cc1 [MLS000402239-01] | 5.96 µM |
| COC(=O)CC1Oc2ccc(Cl)cc2-n2cc(-c3ccc(F)cc3)nc21 (centres unmarked) [NCGC00164810-01] | 4.22 µM |
| CC(C)c1nc2c(c(-c3ccc(O)cc3)n1)CN(Cc1cccc(F)c1)CC2 [NCGC00480376-01] | 9.44 µM |
| O=[S+]([O-])(c1cccnc1)N1CCC2(CC1)NCCc1c2[nH]c2ccccc12 [NCGC00460719-01] | 16.8 µM |
| O=c1nc(C2CCCN(Cc3ccccn3)C2)[nH]n1-c1ccc(Cl)cc1 (centres unmarked) [NCGC00477746-01] | 2.37 µM |
| CC(=O)Nc1cc(-c2cc(C(=O)NCCc3c[nH]cn3)c3c(c2)N(C)CCO3)ccn1 [NCGC00417032-01] | 13.7 µM |
| CC(C)CNc1nnnc2c1sc1nc(N3CCOCC3)c3c(c12)CCCC3 [MLS000779378-01] | 15 µM |
| CC1=CC(C)(C)Nc2ccc(OC(=O)c3cccnc3)cc21 [MLS000111190-01] | 13.3 µM |

| Compound | AC50 |
| --- | --- |
| CN(C)CCCNc1ccc(-c2cc(Nc3cccc(Cl)c3)ncn2)cn1 [MLS000911553-01] | 9.44 µM |
| Cc1ccc(O)c(CN2CCN(c3ccccc3)CC2)c1 [MLS000084753-01] | 2.99 µM |
| Cc1cc(C(F)(F)F)nn1CC(=O)NCCc1ncc(C)n1CC1CC1 [NCGC00469801-01] | 10.6 µM |
| CCOC(=O)c1cc2c(=O)n3ccccc3nc2n(CC(C)C)/c1=N\C(=O)COc1ccc(Cl)cc1 [NCGC00104075-01] | 10.6 µM |
| O=C1N=C(NC2CCCC2)C2(CCN(CC3CC3)C2)N1c1cc(F)cc(F)c1 (centres unmarked) [NCGC00374289-01] | 1.5 µM |
| COc1ccc2cc1Nc1ccc(cc1)C[C@H](NCc1ccc3c(c1)CCO3)C(=O)N(C)[C@H](C(=O)NCCC(C)C)C2 [NCGC00410296-01] | 3.35 µM |
| CN(C)C(C(=O)N1CCC(F)(F)CC1)c1ccccc1F (centres unmarked) [NCGC00444487-01] | 15 µM |
| O=C(NC1CC1)c1ccccc1OCC1CCCN(Cc2cccc3[nH]ccc23)C1 (centres unmarked) [NCGC00427156-01] | 5.96 µM |
| Cc1cccc(CN2CCCN(Cc3ccncc3)C(c3ccccc3)CC(=O)NCC2)c1 (centres unmarked) [NCGC00467184-01] | 4.22 µM |
| O=C(NC1CCCC1)c1ccc(OC2CCN(CCCC(F)(F)F)CC2)c(Cl)c1 [NCGC00429036-01] | 9.44 µM |
| O=C1NCc2ccccc2CC12CCCCN2CC1CC=CCC1 (centres unmarked) [NCGC00377392-01] | 2.34 µM |
| CCCCn1c(NS(=O)(=O)c2ccccc2)c(C(=O)OCC)c2nc3ccccc3nc21 [MLS000589117-01] | 10.6 µM |
| c1cnc(N2CCOCC2)c(OC2CCNC2)n1 (centres unmarked) [NCGC00434832-01] | 7.5 µM |
| COc1ccc(OC)c(S(=O)(=O)Nc2ccc(O)c3ccccc23)c1 [MLS001045548-01] | 8.41 µM |
| CCOC(=O)c1ccccc1NC1c2ccccc2C(=O)N1C1CCN(C(=O)OCC)CC1 (centres unmarked) [MLS000878310-01] | 13.3 µM |
| CC(=O)C1=C(c2ccc(Cl)cc2)N(C(C)=O)n2c(nnc2C2CCCCC2)S1 [NCGC00137192-01] | 4.73 µM |
| Cc1nc(-c2ccco2)cc([C@H]2CN3CC[C@H]2C[C@@H]3CNCc2ccccc2)n1 [NCGC00401513-01] | 4.33 µM |
| CC1=C(C(=O)Nc2ccccc2)C(c2cc(Br)ccc2F)n2ncc(C(=O)Nc3ccccc3)c2N1 (centres unmarked) [NCGC00126266-01] | 1.68 µM |
| CC(=O)Nc1cccc(-c2cc(C(=O)NCc3c(C)cc(C)[nH]c3=O)c3c(c2)N(C(C)C)CCO3)c1 [NCGC00417042-01] | 9.44 µM |
| CCn1cc(CN2CC(Oc3ccc(-c4noc(-c5ccncc5)n4)cc3)C2)cn1 [NCGC00458017-01] | 13.3 µM |
| CCN(CC)S(=O)(=O)c1ccc(N2CCCCC2)c(NC(=O)C2=COCCO2)c1 [MLS001150729-01] | 6.68 µM |
| Fc1ccc(-c2ccc3ncc(Nc4ccnc(N5CCOCC5)c4)n3n2)cc1 [NCGC00412558-01] | 1.72 µM |
| N#CC1CCN(C(=O)c2nc(-c3cccc(C(F)(F)F)c3)c3cnccn23)CC1 [NCGC00476479-01] | 16.8 µM |
| Cc1ccc(-n2c(C3CCN(C(=O)COc4ccc(Cl)cc4)CC3)n[nH]c2=O)cc1 [NCGC00451295-01] | 10.6 µM |
| CN1CCN(Cc2nnc(C(=O)N3CCC[C@@H]3c3ccc(Br)cc3)n2Cc2ccccc2)CC1 [NCGC00415715-01] | 7.5 µM |
| COc1cc(NC(=O)Cn2c(=O)n(CC3CCC(C(=O)NCCc4ccccc4)CC3)c(=O)c3ccccc32)cc(OC)c1 (centres unmarked) [NCGC00106543-01] | 5.96 µM |
